Reference: US20240325553A1, “CYTOSTATIC CONJUGATES WITH INTEGRIN LIGANDS” (priority 2018, published 2024)
Read-outs that look alike come from different tables or passages of the source. Marks after values point to notes of the source that are not given here.

Tests used:
[1] = system: NCI-H69 xenograft (lung cancer); test: In vivo xenotransplantation study, NCI-H69; design: species or system mice; conditions: NCI-H69, 40 mg/kg i.v., 3 days on, 4 days off, 3 cycles; mean tumor area
Description: (§1) For this purpose, immunocompromised mice were implanted subcutaneously with tumor cells or tumor fragments. […] Intravenous treatments were performed on three consecutive days once daily followed by four days drug holiday without treatments. The tumor size and the body weight were determined at least weekly. The tumor area was detected by means of an electronic caliper [length (mm)×width (mm)]. The experimental groups were ended when the group reached the pre-determined ethical endpoint based on German and European animal welfare regulations. In vivo anti-tumor efficacy is presented as T/C ratio of mean tumor area measured for treatment and control group on the last day at which the vehicle control remained in study (Treatment/Control; mean tumor area of treatment group/mean tumor area of control group. A compound having a T/C below 0.5 is defined as active (i.e., effective). Statistical analysis was assessed using SigmaStat software. A one-way analysis of variance was performed and differences to the control were compared by a pair-wise comparison procedure (Dunn's method).

[2] = Plasma stability in rat plasma; format: in vitro ADME; conditions: 37° C.
Description: For complete dissolution the HPLC vial was shaken and treated with ultrasound. 500 μl of this solution were added to 0.5 mL of rat plasma with vortexing at a temperature of 37° C. Aliquots (10 μL each) were taken at respective time points and analyzed by HPLC to determine the amount of the test compound. All data is given as percent area of the initial compound at t0.

[3] = system: 786-O xenograft (renal cancer); test: In vivo xenotransplantation study, 786-O; design: species or system mice; conditions: 36 mg/kg i.v., 3 days on, 4 days off, 3 cycles, mean tumor area
Description: as §1

HT29 cell line = test: Cytotoxicity in vitro (MTT) in the presence and absence of elastase, HT29; format: cell-based; conditions: 72 h
Description: (§2) Cultivation of cells was performed according to standard procedures with the media recommended by the provider. The cells in a total volume of 100 μL were seeded in a 96-well plate with white bottom (#3610). After a 24 h incubation period at 37° C. and 5% CO2, the medium was changed by adding 90 μL fresh medium. The treatment starts by adding the test compound to the cells in 10 μl of culture medium. Concentrations from 10^−5 M to 10^−13 M in triplicates were chosen followed by an incubation at 37° C. and 5% carbon dioxide. One set of samples were only treated with the test compound whereas to an otherwise identically treated second set of samples also 10 nM elastase was pipetted. After 72 h. the proliferation is detected using the MTT assay (ATCC). At the end of the incubation period the MTT reagent is added to all samples for 4 h, followed by lysis of the cells overnight by addition of the detergent. The dye formed was detected at 570 nm. The proliferation of cells which were not treated with test substance but were otherwise identically treated was defined as the 100% value. (FIG. 1 and table 4).

Solubility in vehicles = format: physicochemical; conditions: room temperature (25° C.)
Description: Method: For each vehicle to be tested. 0.5-1.0 mg test compound were weighed into a 2 ml Eppendorf vial. 2-3 Glas perls (Ø 3 mm) and 1.0 ml vehicle were added. The vial was shaken at 1400 rpm for 24 hrs at room temperature (25° C.). After this time period the supernatant (approx. 230 μl was transferred to a centrifuge tube. After 30 min at 42 000 rpm the solute was transferred to another vial and diluted with DMSO (1:5 and 1:50). These two dilutions were analyzed by HPLC (read out: area)
• Eluent A: 1 ml Trifluoro acetic acid/L water • Eluent B: 1 ml Trifluoro acetic acid/L acetonitrile • Gradient:
• Column: ZORBAX Extend-C18, 3.0×50 mm, 3, 5 μm • Oven temperature: 30° C. • Detection: 214 and 254 nm • Injection volume: 20 μl
For quantification a calibration curve was obtained from DMSO solution of the test compound ([…], 20 μg/ml and 2.5 μg/ml) by employing the same HPLC method.

786-O cell line = test: Cytotoxicity in vitro (MTT) in the presence and absence of elastase, 786-O; format: cell-based
Description: as §2

αvβ3 receptor = target: T1, αvβ3 receptor (Homo sapiens, UniProt P05106+P06756); test: αvβ3 binding test (echistatin SPA)
T1 construct: αvβ3 from human A375 cells was purified analogously to a procedure described by Wong et al; endogenous in cells; host or cells: human A375 cells (receptor purified from the cells)
T1 sequence (P06756 31-889 limits assumed): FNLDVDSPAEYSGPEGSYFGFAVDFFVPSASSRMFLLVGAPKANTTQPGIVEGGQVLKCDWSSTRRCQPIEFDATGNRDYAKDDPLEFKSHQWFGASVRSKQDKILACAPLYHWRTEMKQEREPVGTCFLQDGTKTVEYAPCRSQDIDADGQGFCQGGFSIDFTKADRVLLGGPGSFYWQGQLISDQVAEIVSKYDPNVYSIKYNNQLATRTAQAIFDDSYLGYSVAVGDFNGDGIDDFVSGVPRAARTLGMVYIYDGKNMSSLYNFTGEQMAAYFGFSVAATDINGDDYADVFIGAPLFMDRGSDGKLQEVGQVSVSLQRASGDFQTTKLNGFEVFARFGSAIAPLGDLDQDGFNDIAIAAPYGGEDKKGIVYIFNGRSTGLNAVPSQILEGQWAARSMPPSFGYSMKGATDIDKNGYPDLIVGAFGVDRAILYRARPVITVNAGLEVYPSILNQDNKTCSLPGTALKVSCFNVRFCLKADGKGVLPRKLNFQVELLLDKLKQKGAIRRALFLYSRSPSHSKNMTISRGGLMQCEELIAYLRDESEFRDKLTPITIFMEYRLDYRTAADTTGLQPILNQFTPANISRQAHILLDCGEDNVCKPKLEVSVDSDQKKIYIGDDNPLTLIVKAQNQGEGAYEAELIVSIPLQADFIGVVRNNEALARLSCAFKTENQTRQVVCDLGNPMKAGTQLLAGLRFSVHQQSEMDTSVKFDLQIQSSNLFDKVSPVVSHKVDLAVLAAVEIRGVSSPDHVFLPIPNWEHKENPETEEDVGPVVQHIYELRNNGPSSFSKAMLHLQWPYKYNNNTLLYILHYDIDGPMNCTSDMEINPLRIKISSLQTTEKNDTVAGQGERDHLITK
T1 sequence (P06756 891-1048 partner limits assumed): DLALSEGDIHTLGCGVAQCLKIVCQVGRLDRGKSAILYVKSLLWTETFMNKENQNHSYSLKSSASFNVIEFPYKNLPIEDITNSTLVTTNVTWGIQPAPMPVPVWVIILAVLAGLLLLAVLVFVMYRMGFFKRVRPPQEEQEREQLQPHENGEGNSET
T1 sequence (P05106 27-788): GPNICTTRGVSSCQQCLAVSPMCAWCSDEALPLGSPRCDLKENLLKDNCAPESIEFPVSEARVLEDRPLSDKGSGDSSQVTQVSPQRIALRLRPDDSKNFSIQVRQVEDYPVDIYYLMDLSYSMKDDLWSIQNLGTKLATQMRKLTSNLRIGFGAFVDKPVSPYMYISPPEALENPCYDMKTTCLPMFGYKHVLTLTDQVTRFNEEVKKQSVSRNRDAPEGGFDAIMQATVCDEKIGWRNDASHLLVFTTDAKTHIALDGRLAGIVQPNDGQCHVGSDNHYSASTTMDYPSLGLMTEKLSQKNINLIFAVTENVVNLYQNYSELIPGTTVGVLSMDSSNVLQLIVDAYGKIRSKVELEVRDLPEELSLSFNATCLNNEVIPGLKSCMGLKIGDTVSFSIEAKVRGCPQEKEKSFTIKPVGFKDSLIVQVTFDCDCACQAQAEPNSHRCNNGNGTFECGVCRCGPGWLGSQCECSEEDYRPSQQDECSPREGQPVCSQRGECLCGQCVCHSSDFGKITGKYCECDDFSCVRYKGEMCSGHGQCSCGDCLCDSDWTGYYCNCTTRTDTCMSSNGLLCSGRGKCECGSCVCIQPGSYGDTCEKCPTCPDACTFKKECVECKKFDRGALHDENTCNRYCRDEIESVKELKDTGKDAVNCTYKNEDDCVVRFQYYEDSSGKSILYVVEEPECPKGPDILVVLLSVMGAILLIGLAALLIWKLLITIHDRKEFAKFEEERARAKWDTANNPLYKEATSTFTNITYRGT
Description: αvβ3 from human A375 cells was purified analogously to a procedure described by Wong et al. in Molecular Pharmacology 50, 529-537 (1996). In each case, 10 μL of αvβ3 (5 ng) in TBS PH 7.6, 2 mM CaCl2. 1 mM MgCl2. 1% n-octylglucopyranoside (Sigma): 10 μL of test substance in TBS pH 7.6. 0.1% DMSO and 45 μL of TBS pH 7.6. 2 mM CaCl2, 1 mM MgCl2, 1 mM MnCl2 were incubated at room temperature for 1 h. In each case, 25 μL of WGA SPA beads (Amersham, 4 mg/ml) and 10 μL of echistatin (0.1 μCi, Amersham, chloramine-T labelled) were then added. After 16 h at room temperature, the samples were measured in a scintillation measuring apparatus (Wallac 1450).

[4] = Stability in citric acid buffer at pH 4; format: physicochemical; conditions: 37° C., peak area
Description: Method: 0.15 mg of the test compound were solved in 0.1 ml dimethylsulfoxide and 0.4 ml acetonitrile. For complete dissolution the HPLC vial with the sample solution was shaken and sonicated. Then 1.0 ml of the respective buffer solution (Citrate buffer pH 4; citric acid/sodium hydroxide/sodium chloride Fluka 33643) was added and the sample was vortexed. The sample solution was analysed by HPLC to determine the amount of the test compound and up to two byproducts at a particular time (0, 1, 2 4, 24 hrs) over a period of 24 h at 37° C. t(0) values resulted from a sample immediately taken after vortexing with buffer at RT. The peak areas (in percentage) were used for quantification.
LC & LC/MS purity analysis: The starting material was analyzed for purity by LC; the 24 h sample was additionally analyzed by LC/MS (Waters Quattro Micro).

[5] = system: MX1 xenograft (breast cancer); test: In vivo xenotransplantation study, MX1; design: species or system mice; conditions: MX1, 36 mg/kg i.v., 3 days on, 4 days off, 3 cycles; mean tumor area
Description: as §1

[6] = system: SW-480 xenograft (colon cancer); test: In vivo xenotransplantation study, SW-480; design: species or system mice; conditions: SW-480, 36 mg/kg i.v., 3 days on, 4 days off, 3 cycles; mean tumor area
Description: as §1

CCCNC(=O)Nc1cccc(S(=O)(=O)Nc2cccc([C@@H](CC(=O)[O-])NC(=O)Nc3ccc(NC(=O)NCCOCCOCCOCCC(=O)N[C@@H](CC(=O)[O-])C(=O)N4CCC[C@H]4C(=O)N[C@H](C(=O)O[C@]4(CC)C(=O)OCc5c4cc4n(c5=O)Cc5c-4nc4ccccc4c5CC)C(C)C)cc3)c2)c1.[Na+].[Na+] [Example 1, disodium (4S)-4,11-diethyl-3,14-dioxo-3,4,12,14-tetrahydro-1H-pyrano[3′,4′: 6,7]indolizino [1,2-b]quinolin-4-yl 1-{(2S)-2-(carboxylatomethyl)-17-[4-({[(1R)-2-carboxylato-1-{3-[({3-[(propyl-carbamoyl)amino]phenyl}sulfonyl)amino]phenyl}ethyl]carbamoyl}amino)anilino]-4,17-dioxo-7,10,13-trioxa-3,16-diazaheptadecan-1-oyl}-L-prolyl-L-valinate]
T/C [1]: 0.06*
stable in rat plasma for [2]: > 24 h
T/C [3]: 0.19*
IC50 (HT29 cell line; 10 nM elastase, read-out: HT29 cell line IC50 w elastase): 8.7 nM
IC50 (HT29 cell line; without elastase, read-out: HT29 cell line IC50 w/o elastase): 245 nM
solubility at 24 h (Solubility in vehicles; read-out: Solubility in 0.9% NaCl in H2O): 465 µg/mL
solubility at 24 h (Solubility in vehicles; read-out: Solubility in 5% D-Mannitol): > 500 µg/mL
Specificity factor (786-O cell line; 786-O, IC50 w/o elastase versus w elastase): 165
IC50 (786-O cell line; 72 h, MTT, 10 nM elastase, read-out: 786-O cell line IC50 w elastase): 1.1 nM
IC50 (786-O cell line; 72 h, MTT, without elastase, read-out: 786-O cell line IC50 w/o elastase): 188 nM
IC50 (786-O cell line; side by side comparison, elastase with higher enzymatic activity used, read-out: 786-O cell line IC50 w elastase): 0.17 nM
IC50 (786-O cell line; side by side comparison, without elastase, read-out: 786-O cell line IC50 w/o elastase): 28 nM
IC50 (αvβ3 receptor): 29 nM
Stability in citric acid buffer at pH 4, 4h ([4]; 4 h): 100%
Stability in citric acid buffer at pH 4, 24h ([4]; 24 h): 95%
T/C [5]: 0.03*
T/C [6]: 0.1*
